Patent publication US8088936B2, “Leukotriene B4 inhibitors” (Hoffman-La Roche Inc., priority 2009, dated 2012)

System: Human leukemia HL-60 cells endogenously expressing BLT1 and BLT2 receptors
Assay: Ca2+ flux assay for LTB4 antagonist assay (HL-60 FLIPR)
Type: cell-based
Details: retinoic acid induced HL-60 cells, inhibition of LTB4-induced Ca2+ flux, 30 min preincubation; read-out: LTB4 antagonism (HL-60 FLIPR)
Procedure: Assay of Compounds for Inhibition of LTB4 Activity
Ca^2+Flux Assay for LTB4 Antagonist Assay
Human leukemia HL-60 cells endogenously expressing BLT1 and BLT2 receptors were cultured in RPMI-1640 medium supplemented with 20% fetal bovine serum, 2 mM glutamine, 100 U/ml penicillin and 100 ug/ml streptomycin.
Seventy two hours prior to experiment cells are counted using ViaCount reagent, centrifuged and resuspended at 2.0×10^5 cells/ml density with the complete growth media containing 1 μM Retinoic Acid (Sigma).
On a day of the experiment loading buffer (Calcium-3 Assay Kit, Molecular Devices) was prepared by dissolving the contents of one vial (Express Kit) into 500 ml Hank's Balanced Salt Solution containing 20 mM HEPES and 5 mM probenecid. Equal volume of the loading buffer was mixed with the replacement buffer (Hank's Balanced Salt Solution containing 20 mM HEPES, 0.05% BSA and 5 mM probenecid). Retinoic Acid induced HL-60 cells were counted using ViaCount reagent, centrifuged and resuspended at 2.0×10^6 cells/ml density with the loading buffer/replacement buffer, dispensed into 384 well black/clear microplates (Falcon) (25 μl/well) and placed in a 37° C./5% CO2 incubator for 1 hour.
During the incubation, test compounds were prepared at 6× the desired concentration in HBSS/20 mM HEPES/0.05% BSA as well as LTB4 (Biomol) was prepared at 2.2× concentration in HBSS/20 mM HEPES/0.5% BSA buffer.
After the incubation, both the cell and compound plates were brought to the FLIPR and 5 μl of the diluted compounds were transferred to the cell plates by the FLIPR. Plates were then incubated for 30 min at room temperature. After the ½ hour incubation, plates were returned to the FLIPR and 25 μl of 2.2×LTB4 was added to the cell plates. During the assay, fluorescence readings were taken simultaneously from all 384 wells of the cell plate every 1.5 seconds. Five readings were taken to establish a stable baseline, then 25 μl (LTB4) of sample was rapidly and simultaneously added to each well of the cell plate. The fluorescence was continuously monitored before, during and after sample addition for a total elapsed time of 100 seconds. Responses (increase in peak fluorescence) in each well following agonist addition was determined. The initial fluorescence reading from each well, prior to ligand stimulation, was used a zero baseline value for the data from that well. The responses are expressed as % inhibition of the neutral control (neural control: wells that received buffer plus DMSO but no test compound).

IC50 [nM]	SMILES
3.1	O=C(O)CCCOc1cccc(CCCCCCOc2cc(CO)cc(-c3ccc4c(c3)OCO4)c2)c1CCC(=O)O [Example 1, 4-[3-[6-(3-Benzo[1,3]dioxol-5-yl-5-hydroxymethyl-phenoxy)-hexyl]-2-(2-carboxy-ethyl)-phenoxy]-butyric acid]
24.7	O=C(O)CCCOc1cccc(CCCCCCOc2cc(CO)cc(-c3ccccc3)c2)c1CCC(=O)O [Example 2, 4-{2-(2-Carboxy-ethyl)-3-[6-(5-hydroxymethyl-biphenyl-3-yloxy)-hexyl]-phenoxy}-butyric acid]
62.5	O=C(O)CCCOc1cccc(CCCCCCOc2cc(CO)cc(-c3ccsc3)c2)c1CCC(=O)O [Example 3, 4-{2-(2-Carboxy-ethyl)-3-[6-(3-hydroxymethyl-5-thiophen-3-yl-phenoxy)-hexyl]-phenoxy}-butyric acid]
29.6	O=C(O)CCCOc1cccc(CCCCCCOc2cc(CO)cc(-c3ccc(F)cc3)c2)c1CCC(=O)O [Example 4, 4-{2-(2-Carboxy-ethyl)-3-[6-(4′-fluoro-5-hydroxymethyl-biphenyl-3-yloxy)-hexyl]-phenoxy}-butyric acid]
43.1	O=C(O)CCCOc1cccc(CCCCCCOc2cc(CO)cc(-c3ccc(Cl)cc3)c2)c1CCC(=O)O [Example 5, 4-{2-(2-Carboxy-ethyl)-3-[6-(4′-chloro-5-hydroxymethyl-biphenyl-3-yloxy)-hexyl]-phenoxy}-butyric acid]
7.39	O=C(O)CCCOc1cccc(CCCCCCOc2cc(CO)cc(-c3ccc4c(c3)OCCO4)c2)c1CCC(=O)O [Example 6, 4-(2-(2-Carboxy-ethyl)-3-{6-[3-(2,3-dihydro-benzo[1,4]dioxin-6-yl)-5-hydroxymethylphenoxy]-hexyl}-phenoxy)-butyric acid]
83.2	CS(=O)(=O)c1ccc(-c2cc(CO)cc(OCCCCCCc3cccc(OCCCC(=O)O)c3CCC(=O)O)c2)cc1 [Example 7, 4-[2-(2-Carboxy-ethyl)-3-[6-(5-hydroxymethyl-4′-methanesulfonyl-biphenyl-3-yloxy)-hexyl]-phenoxy]-butyric acid]
0.14	COCc1cc(OCCCCCCc2cccc(OCCCC(=O)O)c2CCC(=O)O)cc(-c2ccc3c(c2)OCO3)c1 [Example 8, 4-[3-[6-(3-Benzo[1,3]dioxol-5-yl-5-methoxymethyl-phenoxy)-hexyl]-2-(2-carboxy-ethyl)-phenoxy]-butyric acid]
1.93	COCc1cc(OCCCCCCc2cccc(OCCCC(=O)O)c2CCC(=O)O)cc(-c2ccccc2)c1 [Example 9, 4-{2-(2-Carboxy-ethyl)-3-[6-(5-methoxymethyl-biphenyl-3-yloxy)-hexyl]-phenoxy}-butyric acid]
2.52	COCc1cc(OCCCCCCc2cccc(OCCCC(=O)O)c2CCC(=O)O)cc(-c2ccc(F)cc2)c1 [Example 10, 4-{2-(2-Carboxy-ethyl)-3-[6-(4′-fluoro-5-methoxymethyl-biphenyl-3-yloxy)-hexyl]-phenoxy}-butyric acid]
1.37	COCc1cc(OCCCCCCc2cccc(OCCCC(=O)O)c2CCC(=O)O)cc(-c2ccc(Cl)cc2)c1 [Example 11, 4-{2-(2-Carboxy-ethyl)-3-[6-(4′-chloro-5-methoxymethyl-biphenyl-3-yloxy)-hexyl]-phenoxy}-butyric acid]
1.38	COCc1cc(OCCCCCCc2cccc(OCCCC(=O)O)c2CCC(=O)O)cc(-c2ccc3c(c2)OCCO3)c1 [Example 12, 4-(2-(2-Carboxy-ethyl)-3-{6-[3-(2,3-dihydro-benzo[1,4]dioxin-6-yl)-5-methoxymethyl-phenoxy]-hexyl}-phenoxy)-butyric acid]
140	COCc1cc(OCCCCCCc2cccc(OCCCC(=O)O)c2CCC(=O)O)cc(-c2cscc2C)c1 [Example 13, 4-(2-(2-Carboxy-ethyl)-3-{6-[3-methoxymethyl-5-(4-methyl-thiophen-3-yl)-phenoxy]-hexyl}-phenoxy)-butyric acid]
